Measured values published in patent US7446117B2, “Cox-2 inhibiting pyridine derivatives” (Glaxo Group Limited, priority 2002, dated 2008).

molecular target: T1, microsomal h-COX2 (Homo sapiens, UniProt P35354); test: Microsomal assay: inhibitory activity against microsomal h-COX2; format: biochemical; settings: microsomal preparation from baculovirus infected SF9 cells; 1 hour incubation with compound; 0.1 μM arachidonic acid, 10 minutes; PGE2 by EIA; read-out: IC50 values for inhibition of COX-2
T1 construct: made in house; host or cells: baculovirus infected SF9 cells (microsomal preparation)
T1 sequence (P35354 18-604): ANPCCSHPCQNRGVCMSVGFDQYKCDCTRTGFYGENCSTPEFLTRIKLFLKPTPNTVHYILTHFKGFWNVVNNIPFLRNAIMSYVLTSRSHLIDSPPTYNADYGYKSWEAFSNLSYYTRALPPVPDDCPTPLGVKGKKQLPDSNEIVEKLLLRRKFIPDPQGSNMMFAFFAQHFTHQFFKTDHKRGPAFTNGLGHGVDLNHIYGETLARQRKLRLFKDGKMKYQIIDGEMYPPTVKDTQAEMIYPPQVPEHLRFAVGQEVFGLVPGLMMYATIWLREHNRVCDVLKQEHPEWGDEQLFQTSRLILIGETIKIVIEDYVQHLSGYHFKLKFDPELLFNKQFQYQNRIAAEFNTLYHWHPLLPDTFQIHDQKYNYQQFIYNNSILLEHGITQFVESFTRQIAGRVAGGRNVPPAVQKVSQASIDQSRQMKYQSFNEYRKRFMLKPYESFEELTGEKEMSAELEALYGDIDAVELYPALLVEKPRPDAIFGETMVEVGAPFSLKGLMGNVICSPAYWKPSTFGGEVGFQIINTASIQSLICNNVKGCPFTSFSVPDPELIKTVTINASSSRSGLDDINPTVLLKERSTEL
How it was run: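 Microsomes from baculovirus-infected SF9 cells, in pH 7.4 HEPES buffer with phenol, glutathione, gelatin and hematin, preincubated with compound 1 h at room temperature. Arachidonic acid at 0.1 μM final was added for exactly 10 min at room temperature, stopped with HCl. PGE2 was measured by EIA.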

IC50, ≤ 500 nM:
CCc1cc(-c2ccc(S(C)(=O)=O)cc2)nc(NCc2cnn(C)c2)c1C#N [Example 228]
CCc1cc(-c2ccc(S(C)(=O)=O)cc2)nc(NCc2nc(C)cs2)c1C#N [Example 229]
CCc1cc(-c2ccc(S(C)(=O)=O)cc2)nc(NCC2CCCCC2)c1C#N [Example 231]
CCc1cc(NCc2ncnn2CC)nc(-c2ccc(S(C)(=O)=O)cc2)c1 [Example 232]
CCc1cc(NCc2ncnn2C)nc(-c2ccc(S(C)(=O)=O)cc2)c1 [Example 233]
CCn1ncnc1CNc1cc(C)cc(-c2ccc(S(C)(=O)=O)cc2)n1 [Example 234, N-[(1-ethyl-1H-1,2,4-triazol-5-yl)methyl]-4-methyl-6-[4-(methylsulfonyl)phenyl]pyridine-2-amine]
CCn1ncnc1CNc1cc(C(F)(F)F)cc(-c2ccc(S(C)(=O)=O)cc2)n1 [Example 235]
CCc1cc(-c2ccc(S(C)(=O)=O)cc2)nc(OCc2ccc(C)nc2)c1C#N [Example 236, 4-Ethyl-2-{[(6-methyl-3-pyridinyl)methyl]oxy}-6-[4-(methylsulfonyl)phenyl]-3-pyridinecarbonitrile]
